Consider 16 molecules from patent publication US7795332B2, “Method of removing fluorinated carboxylic acid from aqueous liquid” (priority 2005, dated 2010).

Marks after values point to notes of the source that are not given here.

The series can be described thus: Determination of bio-accumulation: urinary clearance pharmacokinetic study in rats. To be noted: for Compound-related Effects: 73 micro Moles per kg oral gavage, clinical signs and gross necropsy 96 hours post-dose; for T½: renal elimination half-life, urine by fluorine NMR, exponential curve fitting.
Setting [1] is: recovery of administered amount in urine after 96 h, 73 micro Moles per kg, oral gavage.
Where [2] appears, read: 73 micro Moles per kg, oral gavage.
The mark [3] stands for this setting: no parent compound in urine, based on elimination of the major metabolite C3F7-O-CHFCOO-, 73 micro Moles per kg, oral gavage.

As to `N.O=C(O)C(F)(F)OC(F)(F)C(F)(F)C(F)(F)OC(F)(F)F` [Compound 1, CF3—O—(CF2)3—O—CF2—COONH4], the “% Recovery (96 h)” value under setting [1] is listed as 73%.
For the molecule `N.O=C(O)C(F)(F)C(F)(F)C(F)(F)C(F)(F)C(F)(F)OC(F)C(F)(F)F` (stereo not shown) [Compound 14, CF3—CFH—O—(CF2)5—COONH4], the “Compound-related Effects” value is recorded as “Hepatomegaly”. Further, the “% Recovery (96 h)” value under setting [1] is listed as 32%. The “T½” value under setting [2] is listed as 24 h.
On the same counts, the results for `N.O=C(O)C(F)(F)C(F)(F)C(F)(F)C(F)(F)C(F)(F)C(F)(F)C(F)(F)F` [Compound C-1, C7F15COONH4, reference compound] are “Hepatomegaly”, 6% and around 550 h.
Take `N.O=C(O)C(F)(F)C(F)(F)OC(F)(F)C(F)(F)C(F)(F)F` [Compound 8, C3F7—O—CF2—CF2—COONH4]: the “% Recovery (96 h)” value under setting [1] turned out to be 82%. Further, the “T½” value under setting [2] is 12 h.
As for `N.O=C(O)C(F)(F)OC(F)(F)C(F)(F)C(F)(F)OC(F)(F)F` [Compound 4, CF3—(OCF2)3—OCF2—COONH4], the “% Recovery (96 h)” value under setting [1] was found to be 50%.
On to `N.O=C(O)C(F)(F)OC(F)(F)OC(F)(F)OC(F)(F)F` [Compound 3, CF3—OCF2—OCF2—OCF2—COONH4], for which, under setting [1], the “% Recovery (96 h)” value was 100%. Moreover, the “T½” value under setting [2] turned out to be 12 h.
Consider `N.O=C(O)C(F)(F)C(F)(F)OC(F)(F)F` [Compound 6, CF3—O—CF2—CF2—COONH4], for which the “% Recovery (96 h)” value under setting [1] was found to be 100%. In addition, the “T½” value under setting [2] is 11 h.
In the case of `N.O=C(O)C(F)(F)C(F)(F)C(F)(F)OC(F)C(F)(F)F` (stereo not shown) [Compound 15, CF3—CFH—O—(CF2)3—COONH4], under setting [1], the “% Recovery (96 h)” value was found to be 95%. Also, under setting [2], the “T½” value was found to be 8 h.
For `N.O=C(O)C(F)(F)C(F)OC(F)(F)C(F)(F)C(F)(F)F` (stereo not shown) [Compound 13, C3F7—O—CFH—CF2COONH4] the same measures were 94% and 11 h.
In the case of `N.O=C(O)C(F)(F)C(F)OC(F)(F)C(F)(F)C(F)(F)OC(F)(F)F` (stereo not shown) [Compound 11, CF3—O—CF2—CF2—CF2—O—CHF—CF2—COONH4], the “% Recovery (96 h)” value under setting [1] amounted to 84%. Besides, the “T½” value under setting [2] is given as 12 h.
As for `N.O=C(O)C(F)(F)OC(F)(F)C(F)(OC(F)(F)C(F)(F)C(F)(F)F)C(F)(F)F` (stereo not shown) [Compound C-3, CF3CF2CF2OCF(CF3)CF2OCF2COONH4, reference compound], the “Compound-related Effects” value was “Hepatomegaly”. Under setting [1], the “% Recovery (96 h)” value is reported as 5%. Moreover, the “T½” value under setting [2] was found to be 95 h.
Take `N.O=C(O)COC(F)(F)C(F)OC(F)(F)C(F)(F)C(F)(F)F` (stereo not shown) [Compound 16, C3F7—O—CFH—CF2—O—CH2—COONH4]: under setting [3], the “% Recovery (96 h)” value is on record as 65* % and the “T½ (h)” value is 13* h.
Consider `N.O=C(O)C(F)(F)C(F)(F)OC(F)(F)C(F)(F)C(F)(F)C(F)(F)F` [Compound 9, C4F9—O—CF2—CF2—COONH4], for which the “Compound-related Effects” value is reported as “Hepatomegaly”. Moreover, the “% Recovery (96 h)” value under setting [1] is reported as 42%. For the same molecule, under setting [2], the “T½” value is reported as 31 h.
With `N.O=C(O)C(F)(F)OC(F)(F)OC(F)(F)F` [Compound 2, CF3—OCF2—O—CF2—COONH4], the “% Recovery (96 h)” value under setting [1] stood at 96%. Under setting [2], the “T½” value is given as 12 h.
Turning to `N.O=C(O)C(F)(F)C(F)(F)OC(F)(F)C(F)(F)F` [Compound 7, C2F5—O—CF2—CF2—COONH4], under setting [1], the “% Recovery (96 h)” value is on record as 100%. Also, the “T½” value under setting [2] is on record as 10 h.
On the same counts, the results for `N.O=C(O)C(F)OC(F)(F)C(F)(F)C(F)(F)OC(F)(F)F` (stereo not shown) [Compound 12, CF3—O—CF2—CF2—CF2—O—CHF—COONH4] are 95% and 11 h.
